Reference: US9758526B2, “Quinoline-substituted compound” (TAIHO PHARMACEUTICAL CO., LTD., priority 2013, dated 2017)

Key:
EGFR (T790M/L858R) = target: T1, EGFR (T790M/L858R) (Homo sapiens, UniProt P00533, L858R/T790M); assay: EGFR (T790M/L858R) kinase inhibitory activity; type: biochemical; conditions: for IC50: ATP 1 μM, 25° C. for 120 minutes
T1 construct: purchased Carna Biosciences, Inc
Method: The inhibitory activities of the compounds of the present invention against EGFR (T790M/L858R) kinase activity were measured.
(§1) Among the materials of the inhibitory activity measurement, the substrate peptide and the kinase protein were obtained as follows. A peptide with biotinylated N-terminus (biotin-EEPLYWSFPAKKK) was synthesized with reference to FL-Peptide 22, a reagent for LabChip® series of PerkinElmer, Inc. For the kinase protein, a purified recombinant human EGFR (T790M/L858R) protein of Carna Biosciences, Inc. was purchased.
(§2) The inhibitory activity measurement was performed as follows. The compounds of the present invention were individually dissolved in dimethyl sulfoxide (DMSO), and serial dilutions of these compounds were prepared using DMSO. Subsequently, a solution containing the substrate peptide (final concentration: 250 nM), magnesium chloride (final concentration: 10 mM), manganese chloride (final concentration: 10 mM), and ATP (final concentration: 1 μM) in a buffer solution for kinase reaction (Carna Biosciences, Inc.) was mixed with the dilutions of the compounds (final concentration of DMSO upon kinase reaction: 2.5%) or DMSO (final concentration: 2.5%). EGFR (T790M/L858R) protein was further added thereto, and the mixtures were incubated at 25° C. for 120 minutes to carry out a kinase reaction. EDTA was added thereto to a final concentration of 24 mM to thereby terminate the reaction. A phosphorylated thyrosine detection solution containing europium (Eu)-labeled anti-phosphorylated tyrosine antibody PT66 (PerkinElmer, Inc.) and SureLight APC-SA (PerkinElmer, Inc.) was added to the reaction mixtures, and the mixtures were allowed to stand at room temperature for 2 hours or more. For the background, a sample to which EDTA was added before addition of EGFR (T790M/L858R) protein was incubated at 25° C. for 120 minutes, using DMSO instead of the DMSO solution of the compound. The detection solution was also added to this sample, and the mixture was allowed to stand for 2 hours or more. Finally, for all of the test samples, the amount of fluorescence at the time of irradiation of excitation light having a wavelength of 337 nm was measured at dual wavelengths of 620 nm and 665 nm by PHERAstar FS (BMG LABTECH), and a ratio of the fluorescence amounts at the two wavelengths was obtained as data.
(§3) Based on the above rates, phosphorylation inhibition rates (%) were calculated for the samples to which various concentrations of the compound solutions were added. Finally, the obtained reaction inhibition rates (%) at the respective concentrations were plotted for each compound, and the IC50 value (nM), which is a compound concentration at which phosphorylation by EGFR (T790M/L858R) is inhibited by 50%, was determined using XLfit curve-fitting software (IDBS).

EGFR (d746-750/T790M) = target: T2, EGFR (d746-750/T790M) (Homo sapiens, UniProt P00533, DEL746-750/T790M); assay: EGFR (d746-750/T790M) kinase inhibitory activity; type: biochemical; conditions: ATP 1.5 μM
T2 construct: purchased Carna Biosciences, Inc
Method: as §1, §2, §3
The inhibitory activities of the compounds of the present invention against EGFR (d746-750/T790M) kinase activity were measured.
The materials, the measurement method, and the data analysis method were substantially the same as those shown in the above description regarding “Measurement of EGFR (T790M/L858R) Kinase Inhibitory Activity,” except that a purified recombinant human EGFR (d746-750/T790M) protein purchased from Carna Biosciences, Inc. was used as the kinase protein, and the measurement was performed with an ATP final concentration of 1.5 μM. Finally, the IC50 value (nM) of each compound with respect to EGFR (d746-750/T790M) was determined by data analysis.

EGFR (L858R) = target: T3, EGFR (L858R) (Homo sapiens, UniProt P00533, L858R); assay: EGFR (L858R) kinase inhibitory activity; type: biochemical; conditions: ATP 4 μM
T3 construct: purchased Carna Biosciences, Inc
Method: as §1, §2, §3
The inhibitory activities of the compounds of the present invention against EGFR (L858R) kinase activity were measured.
The materials, the measurement method, and the data analysis method were substantially the same as those shown in the above description regarding “Measurement of EGFR (T790M/L858R) Kinase Inhibitory Activity,” except that a purified recombinant human EGFR (L858R) protein purchased from Carna Biosciences, Inc. was used as the kinase protein, and the measurement was performed with ATP at a final concentration of 4 μM. Finally, the IC50 value (nM) of each compound with respect to EGFR (L858R) was determined by data analysis.

EGFR (d746-750) = target: T4, EGFR (d746-750) (Homo sapiens, UniProt P00533, DEL746-750); assay: EGFR (d746-750) kinase inhibitory activity; type: biochemical; conditions: ATP 5 μM, kinase reaction 90 minutes
T4 construct: purchased Carna Biosciences, Inc
Method: as §1, §2, §3
The inhibitory activities of the compounds of the present invention against EGFR (d746-750) kinase activity were measured.
The materials, the measurement method, and the data analysis method were substantially the same as those shown in the above description regarding “Measurement of EGFR (T790M/L858R) Kinase Inhibitory Activity,” except that a purified recombinant human EGFR (d746-750) protein purchased from Carna Biosciences, Inc. was used as the kinase protein, the measurement was performed with ATP at a final concentration of 5 μM, and the incubation for the kinase reaction was performed for 90 minutes. Finally, the IC50 value (nM) of each compound with respect to EGFR (d746-750) was determined by data analysis.

EGFR (WT) = target: T5, EGFR (WT) (Homo sapiens, UniProt P00533); assay: EGFR (WT) kinase inhibitory activity; type: biochemical; conditions: substrate peptide 500 nM
T5 construct: expressing a cytoplasmic domain of human EGFR (WT) with its N-terminus fused to a FLAG tag; FLAG (N); made in house; host or cells: insect Sf9 cells, baculovirus expression system
Method: as §1, §2, §3
The inhibitory activities of the compounds of the present invention against EGFR (WT) kinase activity were measured.
The materials, the measurement method, and the data analysis method were substantially the same as those shown in the above description regarding “Measurement of EGFR (T790M/L858R) Kinase Inhibitory Activity,” except that a kinase protein prepared by expressing a cytoplasmic domain of human EGFR (WT) with its N-terminus fused to a FLAG tag in insect Sf9 cells using a baculovirus expression system and then purifying it with anti-FLAG antibody agarose (Sigma-Aldrich) was used as the kinase protein, the final concentration of the substrate peptide was 500 nM, and the final concentration of ATP was […]. Finally, the IC50 value (nM) of each compound with respect to EGFR (WT) was determined by data analysis.

[1] = test system: NCI-H1975 expressing EGFR (T790M/L858R); assay: Growth inhibition, NCI-H1975 expressing EGFR (T790M/L858R); type: cell-based; conditions: Homo sapiens, NCI-H1975, 72 h; cultured three days, CellTiter-Glo
Method: (§4) (1) A human […] lung cancer cell line NCI-H1975 expressing EGFR (T790M/L858R), (2) a human non-small cell lung cancer cell line HCC827 expressing EGFR (d746-750), and (3) a human epithelioid cancer cell line A431 expressing EGFR (WT) were each suspended in complete growth medium recommended by ATCC. The cell suspensions were seeded in each well of a 384-well flat microplate or a 96-well flat plate, and cultured in an incubator containing 5% carbon dioxide gas at 37° C. for one day. Each compound of the present invention was dissolved in DMSO, and serial dilutions of the test compound were prepared using DMSO (to a concentration 500 times the final concentration). The DMSO solution of the test compound or DMSO was diluted with complete growth medium, and the resulting solution was added to each well of the cell culture plate so that the final concentration of DMSO was 0.2%. Then, the cells were cultured in an incubator containing 5% carbon dioxide gas at 37° C. for three days. The number of cells was measured before the addition of the DMSO solution of the test compound, as well as after addition and culture by using a CellTiter-Glo Assay® (produced by Promega) according to a protocol recommended by Promega.
(§5) For each cell, the cell growth inhibition rates of the wells to which the test compounds at various concentrations were added were calculated by the following formula. Then, the obtained inhibition rates (%) at the respective concentrations were plotted for each test compound, and the GI50 value (nM), which is a test compound concentration at which the cell growth can be inhibited by 50%, was determined using XLfit curve-fitting software (IDBS). • Cell Growth Inhibition Rate (%)=(C−T)/(C−CO)×100 • T: Luminescence intensity of well cultured for three days after addition of the test compound solution • C: Luminescence intensity of well cultured for three days after addition of DMSO • C0: Luminescence intensity of well before addition of the test compound solution

[2] = test system: HCC827 expressing EGFR (d746-750); assay: Growth inhibition, HCC827 expressing EGFR (d746-750); type: cell-based; conditions: Homo sapiens, HCC827, 72 h; cultured three days, CellTiter-Glo
Method: as §4, §5

[3] = test system: A431 expressing EGFR (WT); assay: Growth inhibition, A431 expressing EGFR (WT); type: cell-based; conditions: Homo sapiens, A-431, 72 h; cultured three days, CellTiter-Glo
Method: as §4, §5

T1 sequence (P00533 25-1210 T790M/L858R): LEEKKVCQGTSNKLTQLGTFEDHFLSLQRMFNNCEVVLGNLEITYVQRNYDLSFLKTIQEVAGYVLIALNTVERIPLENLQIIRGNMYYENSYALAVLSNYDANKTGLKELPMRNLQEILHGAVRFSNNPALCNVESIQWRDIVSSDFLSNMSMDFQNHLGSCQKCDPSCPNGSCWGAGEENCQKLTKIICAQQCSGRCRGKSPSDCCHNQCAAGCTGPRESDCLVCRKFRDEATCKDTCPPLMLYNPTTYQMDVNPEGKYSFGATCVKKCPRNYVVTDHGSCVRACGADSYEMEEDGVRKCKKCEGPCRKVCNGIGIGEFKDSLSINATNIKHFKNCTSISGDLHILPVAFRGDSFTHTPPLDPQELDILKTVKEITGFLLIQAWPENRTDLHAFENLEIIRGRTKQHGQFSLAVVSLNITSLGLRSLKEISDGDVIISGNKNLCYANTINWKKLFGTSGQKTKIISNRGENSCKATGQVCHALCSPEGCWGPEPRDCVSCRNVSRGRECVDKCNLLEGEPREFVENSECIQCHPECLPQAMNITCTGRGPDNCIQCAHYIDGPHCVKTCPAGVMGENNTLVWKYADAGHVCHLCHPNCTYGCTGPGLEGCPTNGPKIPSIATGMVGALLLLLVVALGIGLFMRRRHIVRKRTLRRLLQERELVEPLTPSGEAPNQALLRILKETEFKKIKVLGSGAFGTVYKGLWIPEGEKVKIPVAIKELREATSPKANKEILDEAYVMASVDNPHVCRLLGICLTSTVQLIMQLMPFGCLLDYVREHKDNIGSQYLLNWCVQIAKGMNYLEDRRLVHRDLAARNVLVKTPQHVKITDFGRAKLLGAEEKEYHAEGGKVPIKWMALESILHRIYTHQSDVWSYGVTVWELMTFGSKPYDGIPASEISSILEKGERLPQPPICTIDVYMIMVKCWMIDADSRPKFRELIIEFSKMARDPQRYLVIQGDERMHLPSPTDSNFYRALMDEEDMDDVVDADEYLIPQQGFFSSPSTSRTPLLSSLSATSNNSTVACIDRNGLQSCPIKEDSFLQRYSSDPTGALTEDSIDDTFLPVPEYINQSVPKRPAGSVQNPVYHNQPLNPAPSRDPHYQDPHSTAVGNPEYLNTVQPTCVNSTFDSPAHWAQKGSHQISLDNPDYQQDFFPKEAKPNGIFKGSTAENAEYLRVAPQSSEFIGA
T3 sequence (P00533 25-1210 L858R): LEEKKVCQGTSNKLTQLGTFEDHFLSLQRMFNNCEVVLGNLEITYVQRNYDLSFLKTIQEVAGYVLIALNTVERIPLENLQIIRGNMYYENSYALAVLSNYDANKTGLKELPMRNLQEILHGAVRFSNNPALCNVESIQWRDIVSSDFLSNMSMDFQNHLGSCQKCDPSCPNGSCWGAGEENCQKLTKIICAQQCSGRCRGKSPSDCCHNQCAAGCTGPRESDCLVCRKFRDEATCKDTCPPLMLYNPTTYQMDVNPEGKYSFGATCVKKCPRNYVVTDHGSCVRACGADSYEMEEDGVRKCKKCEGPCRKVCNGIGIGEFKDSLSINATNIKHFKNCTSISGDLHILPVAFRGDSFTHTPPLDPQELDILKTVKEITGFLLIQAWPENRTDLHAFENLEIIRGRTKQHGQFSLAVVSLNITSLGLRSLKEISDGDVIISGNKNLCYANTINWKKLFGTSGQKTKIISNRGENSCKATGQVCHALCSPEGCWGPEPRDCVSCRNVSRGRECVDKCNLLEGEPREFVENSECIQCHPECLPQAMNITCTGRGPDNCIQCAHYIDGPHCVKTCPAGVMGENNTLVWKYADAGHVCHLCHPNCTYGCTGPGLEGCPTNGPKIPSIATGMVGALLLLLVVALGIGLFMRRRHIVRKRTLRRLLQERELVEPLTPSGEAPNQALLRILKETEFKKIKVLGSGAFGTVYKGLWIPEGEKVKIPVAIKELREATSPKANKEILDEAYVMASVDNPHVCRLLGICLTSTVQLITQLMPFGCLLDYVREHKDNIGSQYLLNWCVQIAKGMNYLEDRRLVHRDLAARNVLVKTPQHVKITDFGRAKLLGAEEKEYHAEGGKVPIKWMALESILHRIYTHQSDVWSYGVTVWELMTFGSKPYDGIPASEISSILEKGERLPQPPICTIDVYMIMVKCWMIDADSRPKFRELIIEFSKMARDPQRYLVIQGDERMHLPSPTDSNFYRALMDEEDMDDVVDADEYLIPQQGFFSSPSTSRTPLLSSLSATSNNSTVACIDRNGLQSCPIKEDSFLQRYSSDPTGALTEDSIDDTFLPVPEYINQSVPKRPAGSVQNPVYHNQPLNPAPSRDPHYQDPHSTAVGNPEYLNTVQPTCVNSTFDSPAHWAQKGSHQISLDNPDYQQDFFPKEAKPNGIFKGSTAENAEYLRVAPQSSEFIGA
T4 sequence (P00533 with tags, fused parts or gaps DEL746-750 limits assumed): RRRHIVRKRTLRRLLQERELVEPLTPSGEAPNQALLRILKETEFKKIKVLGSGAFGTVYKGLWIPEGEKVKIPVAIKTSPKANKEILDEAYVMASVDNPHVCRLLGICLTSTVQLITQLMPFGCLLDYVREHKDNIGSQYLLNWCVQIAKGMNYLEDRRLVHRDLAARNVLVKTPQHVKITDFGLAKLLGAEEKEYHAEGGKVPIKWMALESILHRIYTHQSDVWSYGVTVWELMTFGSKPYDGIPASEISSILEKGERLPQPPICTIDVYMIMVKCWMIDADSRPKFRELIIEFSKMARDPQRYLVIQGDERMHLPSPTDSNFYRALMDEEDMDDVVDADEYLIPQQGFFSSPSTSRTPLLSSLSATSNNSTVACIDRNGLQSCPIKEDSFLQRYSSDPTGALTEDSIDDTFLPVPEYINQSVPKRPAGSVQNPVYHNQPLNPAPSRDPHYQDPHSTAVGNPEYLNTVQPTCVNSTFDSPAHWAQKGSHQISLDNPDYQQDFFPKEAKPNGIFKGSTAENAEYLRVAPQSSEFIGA
T5 sequence (P00533 669-1210 limits assumed): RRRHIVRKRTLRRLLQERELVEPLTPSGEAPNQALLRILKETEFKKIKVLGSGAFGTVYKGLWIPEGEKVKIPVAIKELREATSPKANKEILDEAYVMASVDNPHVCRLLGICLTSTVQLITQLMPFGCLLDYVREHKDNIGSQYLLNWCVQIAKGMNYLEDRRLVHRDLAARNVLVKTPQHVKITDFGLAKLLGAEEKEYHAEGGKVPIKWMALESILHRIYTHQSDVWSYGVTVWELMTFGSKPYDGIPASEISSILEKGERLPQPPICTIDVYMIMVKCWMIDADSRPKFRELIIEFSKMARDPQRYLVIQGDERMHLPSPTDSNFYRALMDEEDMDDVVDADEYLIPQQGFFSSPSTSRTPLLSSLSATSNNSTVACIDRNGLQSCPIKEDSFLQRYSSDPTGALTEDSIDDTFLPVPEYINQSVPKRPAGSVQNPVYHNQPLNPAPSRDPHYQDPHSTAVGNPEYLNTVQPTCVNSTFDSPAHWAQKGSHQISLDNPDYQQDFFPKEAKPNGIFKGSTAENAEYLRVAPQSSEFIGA
T2 sequence (P00533 with tags, fused parts or gaps DEL746-750/T790M limits assumed): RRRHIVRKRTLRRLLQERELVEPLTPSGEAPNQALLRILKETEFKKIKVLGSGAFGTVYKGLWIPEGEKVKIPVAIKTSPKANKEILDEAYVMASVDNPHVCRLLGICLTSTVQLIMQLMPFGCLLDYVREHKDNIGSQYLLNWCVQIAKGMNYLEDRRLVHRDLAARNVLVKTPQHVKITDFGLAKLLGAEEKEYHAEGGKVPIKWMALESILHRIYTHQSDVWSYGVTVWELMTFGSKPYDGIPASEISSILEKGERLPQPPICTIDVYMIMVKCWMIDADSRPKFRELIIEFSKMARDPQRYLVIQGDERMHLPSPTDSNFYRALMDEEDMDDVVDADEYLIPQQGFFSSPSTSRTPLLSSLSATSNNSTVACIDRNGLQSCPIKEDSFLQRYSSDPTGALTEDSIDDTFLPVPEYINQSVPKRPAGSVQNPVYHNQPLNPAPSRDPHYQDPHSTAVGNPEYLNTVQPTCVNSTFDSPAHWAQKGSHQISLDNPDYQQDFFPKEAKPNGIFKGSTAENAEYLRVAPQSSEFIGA

SMILES	IC50 (EGFR (T790M/L858R))	IC50 (EGFR (d746-750/T790M))	IC50 (EGFR (L858R))	IC50 (EGFR (d746-750))	IC50 (EGFR (WT))	GI50 [1]	GI50 [2]	GI50 [3]	inhibitory activity against EGFR kinases (in words) (EGFR (T790M/L858R); summary for EGFR (L858R), (d746-750), (T790M/L858R), (d746-750/T790M), for the comparative compound all EGFR kinases tested)
C=CC(=O)N[C@@H]1CCn2c(c(-c3cnc4ccccc4c3)c3c(N)ncnc32)C1=C [Example 13, (R)—N-(4-amino-6-methylene-5-(quinolin-3-yl)-6,7,8,9-tetrahydropyrimido[5,4-b]indolizin-7-yl)acrylamide]	0.0021 µM	0.0011 µM	0.0028 µM	0.0021 µM	0.024 µM	0.15 µM	0.013 µM	1.2 µM	
C=C(C)C(=O)N[C@@H]1Cn2c(c(-c3cnc4ccccc4c3)c3c(N)ncnc32)C1=C [Example 2, (S)—N-(4-amino-6-methylene-5-(quinolin-3-yl)-7,8-dihydro-6H -pyrimido[5,4-b]pyrrolizin-7-yl)methacrylamide]	0.077 µM	0.03 µM	0.23 µM	0.078 µM	1.4 µM	4.2 µM	0.78 µM	> 10 µM	
C=CC(=O)N[C@H]1CC(=C)c2c(-c3cnc4ccccc4c3)c3c(N)ncnc3n2C1 [Example 15, (S)—N-(4-amino-6-methylene-5-(quinolin-3-yl)-6,7,8,9-tetrahydropyrimido[5,4-b]indolizin-8-yl)acrylamide]	0.0016 µM	0.0012 µM	0.0013 µM	0.0014 µM	0.0079 µM	0.085 µM	0.022 µM	2 µM	
Nc1ncnc2c1c(-c1cccc(NC(=O)c3ccccc3)c1)c1n2CCCC1 [Comparative Example 1, N-(3-(4-amino-6,7,8,9-tetrahydropyrimido[5,4-b]indolizin-5-yl)phenyl)benzamide, reference compound]									almost no inhibitory activity
C=CC(=O)N[C@H]1CC(C)c2c(-c3cnc4ccccc4c3)c3c(N)ncnc3n2C1 (some centres unmarked) [Example 29]	0.014 µM	0.0084 µM	0.019 µM	0.021 µM		1.6 µM	0.089 µM	> 10 µM	
C=CC(=O)N[C@H]1Cn2c(c(-c3cnc4ccccc4c3)c3c(N)ncnc32)C1=C [Example 25, (R)—N-(4-amino-6-methylene-5-(quinolin-3-yl)-7,8-dihydro-6H-pyrimido[5,4-b]pyrrolizin-7-yl)acrylamide]	0.036 µM	0.011 µM	0.1 µM	0.059 µM		2.5 µM	0.26 µM	> 10 µM	

The remaining lines, values ahead:

IC50 (EGFR (T790M/L858R))	IC50 (EGFR (d746-750/T790M))	IC50 (EGFR (L858R))	IC50 (EGFR (d746-750))	IC50 (EGFR (WT))	GI50 [1]	GI50 [2]	GI50 [3]	inhibitory activity against EGFR kinases (in words) (EGFR (T790M/L858R); summary for EGFR (L858R), (d746-750), (T790M/L858R), (d746-750/T790M), for the comparative compound all EGFR kinases tested)	SMILES
< 0.0005 µM	< 0.00015 µM	< 0.0005 µM	< 0.00015 µM	0.001 µM	0.8 µM	0.066 µM	1.1 µM		C#CC(=O)N[C@@H]1Cn2c(c(-c3cnc4ccccc4c3)c3c(N)ncnc32)C1=C [Example 8, (S)—N-(4-amino-6-methylene-5-(quinolin-3-yl)-7,8-dihydro-6H-pyrimido[5,4-b]pyrrolizin-7-yl)propiolamide]
0.0003 µM	< 0.0005 µM	0.00049 µM	0.00027 µM		0.048 µM	0.014 µM	1.2 µM		C=CC(=O)N[C@H]1C=Cc2c(-c3cnc4ccccc4c3)c3c(N)ncnc3n2CC1 [Example 28, (R)—N-(4-amino-5-(quinolin-3-yl)-9,10-dihydro-8H-pyrimido[5′,4′:4,5]pyrrolo[1,2-a]azepin-8-yl)acrylamide]
0.00034 µM	0.00025 µM	0.00035 µM	0.00038 µM		0.11 µM	0.015 µM	1 µM		C=CC(=O)N[C@H]1C=Cc2c(-c3cnc4ccccc4c3)c3c(N)ncnc3n2C1 [Example 27, (S)—N-(4-amino-5-(quinolin-3-yl)-8,9-dihydropyrimido[5,4-b]indolizin-8-yl)acrylamide]
0.001 µM	0.00031 µM	0.0017 µM	0.0011 µM		0.15 µM	0.0184 µM	4.7 µM		C=CC(=O)N(C)[C@@H]1Cn2c(c(-c3cnc4ccccc4c3)c3c(N)ncnc32)C1=C [Example 26, (S)—N-(4-amino-6-methylene-5-(quinolin-3-yl)-7,8-dihydro-6H-pyrimido[5,4-b]pyrrolizin-7-yl)-N-methylacrylamide]
